Assay results taken from patent US11896612B2, “Resurrection of antibiotics that MRSA resists by silver-doped bioactive glass-ceramic particles” (Board of Trustees of Michigan State University, priority 2019, dated 2024).
Entries after “also recorded” stand apart in the source; their conditions may differ.

Key:
[1] = tested on: human mesenchymal stem cells (hBMSC); test: Proliferation of human mesenchymal stem cells, CCK-8; format: cell-based; settings: 0.2 mg/mL Ag2O in transwell, 4 days exposure
Experimental: Primary bone-marrow derived human mesenchymal stem cells (hBMSC) isolated from healthy donor were obtained from the Institute of Regenerative Medicine, Texas A&M University. Frozen vials of cells were thawed and cultured a in α-MEM supplemented with 16% fetal bovine serum, 1% Antibiotic-Antimycotic and 1% L-glutamine (hereafter, growth medium) in a humidified 37° C./5% CO2 incubator. Cells were expanded until 90% confluence to a final passage. Cells were enzymatically lifted, centrifuged for 5 min and re-suspended fresh media. Cells were seeded at a density of 15×10^3 cells/mL on each well of 24-well plate by pipetting 0.5 mL/well. After 24 h, Ag-BGN (5, 10 and 20 mg/mL) were transferred to porous transwells and inside the wells to treat cell for 2, 4, 6, 8 and 10 days. The results were compared to a positive control consisting on cell immersed only in media and a negative control consisting on cells treated with Ag2O exposed using a porous transwell. […]
After each time point, cell viability and proliferation were assessed introducing a CCK-8 kit solution in the wells after removing the transwells. After 2 h, […] were drawn and placed in a 96 well plate and its optical density was measured at 470 nm wavelength. […]

[2] = tested on: methicillin-resistant S. aureus USA300 JE2; test: Antibacterial test: CFU enumeration of MRSA suspended in PBS (growth-arrested); format: cell-based, Staphylococcus aureus; settings: 24 hours; for bacterial inhibition by antibiotic alone: PBS, static, oxacillin 0.1-50 μg/ml, vancomycin up to 10 mg/ml, fosfomycin 0.05-50 μg/ml, gentamicin 0.01 μg/ml
Experimental: All experiments are conducted using the laboratory derived methicillin-resistant S. aureus USA300 JE2. Cells are streaked for isolation on tryptic soy agar (TSA) and cultured at 37° C. overnight. An isolated colony is then grown in broth (TSB), shaking at 225 rpm at 37° C. overnight. Next, 1 mL solution of MRSA in PBS, normalized to an optical density (OD600 nm) equal to 1 (equivalent to 10^8 CFU/mL) is prepared. The bacterial suspension is mixed in a 1:1 volume ratio, with each of the solutions containing twofold the final concentration of Ag-BG, antibiotic, or the indicated Ag-BG/antibiotic combination. An untreated control is also prepared by mixing the bacterial suspension in a 1:1 volume ratio with PBS.
Bacterial suspensions are placed in a 37° C. incubator for the indicated time. At each time point, an aliquot of the bacterial suspension is removed to enumerate colony forming units (CFU) of the bacteria via serial dilution and plating on TSA. All plates are incubated at 37° C. Quantification of CFU are performed in biological and technical triplicate. Measurements are repeated three times. Standard deviation is indicated as error bars. Statistical analysis is performed using the paired Student's t-test, two tailed, n=9 and p<0.05.
The bactericidal properties of Ag-BG alone, vancomycin alone (vanc) and the combination of Ag-BG with vancomycin (Ag-BG/vanc) were studied against laboratory-derived methicillin-resistant S. aureus (MRSA) USA300 JE241. The bacteria cells were prepared by isolation of a single colony, followed by its inoculation in tryptic soy broth overnight at 37° C. A bacterial suspension was prepared by adjusting the concentration of the overnight culture to 108 colony forming units (CFU)/mL in Phosphate Buffered Saline (PBS). Then, the bacterial suspension was mixed 1:1 with the corresponding treatment (Ag-BG, Ag-BG/vanc or vanc) to a final volume of 1 mL. A negative control was prepared by suspending bacteria 1:1 in PBS. After 24 h of incubation at 37° C., […] of suspension were drawn from the mixture for CFU enumeration in tryptic soy agar plates. The effect of the treatments was evaluated based on the decrease of CFU compared to the negative control. Quantification of CFU was performed in biological and technical triplicates.
Vancomycin (molecular formula: C66H75C12N9O24·HCl, Vancomycin hydrochloride) is a cell-wall targeting antibiotic with no effect against MRSA under growth-arrested conditions and was selected for this example. Here, the concentration dependency of this synergism was evaluated by exposing MRSA to different combinations of Ag-BG/vanc. Two experimental set-ups were considered. Initially, 0.5 mg/mL of vancomycin were delivered together with 1.25, 2.5, 3.75 or 6.5 mg/mL of Ag-BG and then, 2.5 mg/mL of Ag-BG were combined with 0.1, 0.3, 0.5 and 1 mg/mL of vancomycin. The Ag-BG powder was sterilized using UV radiation before exposure to bacteria. The antibiotic treatment was prepared by dilution of vancomycin powder at different concentrations in PBS, and the Ag-BG/vanc samples were prepared by mixing Ag-BG powder with the corresponding vancomycin solution.

MRSA [3] = test: TEM and SEM imaging of MRSA after exposure; format: cell-based, Staphylococcus aureus; settings: 24 hours exposure in PBS
Experimental: After 24 hours of incubation, solutions are prepared for studies with TEM to observe the morphology and ultrastructural properties of bacteria in each of the tested groups. The cultures are centrifuged and fixed using Karnovsky fixative, consisting of 2.5% glutaraldehyde, 2.5% paraformaldehyde and 0.1 M cacodylate buffer dissolved in deionized water. In the cases of the tested groups with Ag-BG particles, the particles are removed by allowing them to settle to the bottom of the Eppendorf microcentrifuge tubes before centrifugation and fixation. Bacteria pellets are suspended and incubated in fixative for 2 hours at room temperature. Next, the suspensions are centrifuged to remove the fixative. To capture bacteria in a solid matrix, a drop of a 2% agarose deionized water solution is added to the cell pellet. After the agarose solidifies, the matrix is washed three times at room temperature for 15 minutes with 0.1 M cacodylate buffer. A solution of 2% osmium tetroxide is used to stain the bacterial cells for 1 hour at the post-fixation stage. Subsequently, the cubes are washed with deionized water. Dehydration is done by a series of different concentrations of acetone: 25%, 50%, 75%, and 100%. Next, Spurr resin is infiltrated in a series of dilutions in acetone (acetone: resin): 3:1, 1:1, and 100% resin for two days. The cells are embedded in 100% Spurr resin at 60° C. for 24 hours and then, thin sections of less than 100 nm thickness are obtained by ultramicrotome (RMC MYX ultramicrotome) with glass knives and are mounted in bare copper grids. Positive staining is done with 2% uranyl acetate for 7 minutes and lead citrate for 3 minutes. Finally, samples are observed at 100 kV in a JEOL 100CX microscope.
Bacterial morphology upon exposure to Ag-BG particles is studied using SEM. Cells are prepared after 12 hours of exposure. In this case, the Ag-BG particles remain in the solution with the cells and are fixed using 2.5% glutaraldehyde, 2.5% paraformaldehyde, and 0.1 M cacodylate buffer dissolved in deionized water. […]

MRSA [4] = test: Vancomycin susceptibility of MRSA cultured in tryptic soy broth (TSB); format: cell-based, Staphylococcus aureus
Experimental: Oxacillin and fosfomycin are used at 0.1 and 0.05 μg/ml, respectively—a concentration that is considerably lower than their MIC. Vancomycin (molecular formula: C66H75C12N9O24·HCl, Vancomycin hydrochloride) is selected due to a mechanism of action that is dependent on cell growth. MRSA is susceptible to 0.47 μg/ml of vancomycin when cultured in tryptic soy broth (TSB). However, exposure to vancomycin in growth arrested conditions, such as suspension in phosphate buffered saline (PBS), enhances tolerance to the antibiotic. Cells are exposed to 0.5 mg/ml vancomycin in PBS. […] All antibiotics are purchased from Sigma Aldrich in powder USP Reference Standard and are used without further purification.

eukaryotic cells = settings: cited from earlier work
bacteria = settings: cited from earlier work

[Ag+].[Ag+].[O-2] [Ag2O]
cell viability [1]: not viable

C[C@@H]1O[C@@H]1P(=O)(O)O [fosfomycin, Fosfomycin]
bacterial inhibition by antibiotic alone [2]: resistant
bacterial ultrastructure by TEM (MRSA [3]): intact cells

Cc1onc(-c2ccccc2)c1C(=O)N[C@@H]1C(=O)N2[C@@H]1SC(C)(C)[C@@H]2C(=O)O [oxacillin, Oxacillin]
bacterial inhibition by antibiotic alone [2]: no demonstrable bacterial inhibition
bacterial ultrastructure by TEM (MRSA [3]): intact cells

CN[C@H](CC(C)C)C(=O)N[C@H]1C(=O)N[C@@H](CC(N)=O)C(=O)N[C@H]2C(=O)N[C@H]3C(=O)N[C@H](C(=O)N[C@H](C(=O)O)c4cc(O)cc(O)c4-c4cc3ccc4O)[C@H](O)c3ccc(c(Cl)c3)Oc3cc2cc(c3O[C@@H]2O[C@H](CO)[C@@H](O)[C@H](O)[C@H]2O[C@H]2C[C@](C)(N)[C@H](O)[C@H](C)O2)Oc2ccc(cc2Cl)[C@H]1O [vancomycin, Vancomycin]
bacterial inhibition by antibiotic alone [2]: not lethal; also recorded: no reduction of CFU/mL
bacterial ultrastructure by TEM (MRSA [3]): intact cells
concentration to which MRSA is susceptible (MRSA [4]): 0.47 µg/mL

Gentamicin
bacterial inhibition by antibiotic alone [2]: does not inhibit significantly
concentration that significantly inhibits MRSA ([2]; static conditions): higher than 0.1 μg/ml

silver ions
lowest concentration that induces cytotoxicity (eukaryotic cells): 1.6 ppm
minimum bactericidal concentration (bacteria): 0.1 ppm
